From patent US11986471B2, “Compounds and methods of use” (Tango Therapeutics, Inc., priority 2018, dated 2024)

How the values were obtained:
PRMT5 [1] = target: T1, PRMT5 (Homo sapiens, UniProt O14744); assay: PRMT5 IC50 assay in the presence of SAM as cofactor; type: biochemical
T1 construct: purchased Viva (custom protein)
How it was run: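 IC50 against PRMT5 determined with SAM as cofactor, with no cofactor, and with MTA as cofactor. Ki derived as IC50/1.5 for the SAM assay and IC50/13.5 for the MTA assay; SAM Ki to MTA Ki ratio also reported.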

PRMT5 [2] = target: T1, PRMT5; assay: PRMT5 IC50 assay with no cofactor; type: biochemical
How it was run: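 Enzyme: human PRMT5. Conditions: plus SAM, plus MTA, or cofactor-free. Output: IC50 (μM); Ki via IC50/1.5 (SAM) or IC50/13.5 (MTA).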

PRMT5 [3] = target: T1, PRMT5; assay: PRMT5 IC50 assay in the presence of MTA as cofactor; type: biochemical; conditions: for IC50: PRMT5, MTA as cofactor
How it was run: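 For the SAM-containing format, dividing IC50 by 1.5 yields Ki; for the MTA-containing format the divisor is 13.5. A third format without cofactor gives IC50 alone.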

HAP1 MTAP-intact = assay: SDMA in-cell western assay, HAP1 MTAP-intact cell line; type: cell-based; conditions: Homo sapiens
How it was run: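 IC50 values come from SDMA in-cell western staining of HAP1 cells. The MTAP-intact line carries endogenous MTAP, while its MTAP-deleted counterpart lacks MTAP entirely. A selectivity ratio of at least 3 fold marks a compound as MTAP-selective.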

HAP1 MTAP-deleted = assay: SDMA in-cell western assay, HAP1 MTAP-deleted cell line; type: cell-based; conditions: for IC50: Homo sapiens, HAP1 MTAP-deleted cell line; for MTAP Intact/Deleted Ratio: IC50 ratio HAP1 MTAP-intact / HAP1 MTAP-deleted
How it was run: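 Readout is cellular SDMA signal by in-cell western, with IC50 values derived from it. The cells are MTAP-null HAP1, matched to an isogenic MTAP-intact HAP1 line.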

[4] = ratio between Ki in the presence of SAM and Ki in the presence of MTA
[5] = ratio between the Ki in the presence of SAM and the Ki in the presence of MTA

T1 sequence (O14744 whole entry): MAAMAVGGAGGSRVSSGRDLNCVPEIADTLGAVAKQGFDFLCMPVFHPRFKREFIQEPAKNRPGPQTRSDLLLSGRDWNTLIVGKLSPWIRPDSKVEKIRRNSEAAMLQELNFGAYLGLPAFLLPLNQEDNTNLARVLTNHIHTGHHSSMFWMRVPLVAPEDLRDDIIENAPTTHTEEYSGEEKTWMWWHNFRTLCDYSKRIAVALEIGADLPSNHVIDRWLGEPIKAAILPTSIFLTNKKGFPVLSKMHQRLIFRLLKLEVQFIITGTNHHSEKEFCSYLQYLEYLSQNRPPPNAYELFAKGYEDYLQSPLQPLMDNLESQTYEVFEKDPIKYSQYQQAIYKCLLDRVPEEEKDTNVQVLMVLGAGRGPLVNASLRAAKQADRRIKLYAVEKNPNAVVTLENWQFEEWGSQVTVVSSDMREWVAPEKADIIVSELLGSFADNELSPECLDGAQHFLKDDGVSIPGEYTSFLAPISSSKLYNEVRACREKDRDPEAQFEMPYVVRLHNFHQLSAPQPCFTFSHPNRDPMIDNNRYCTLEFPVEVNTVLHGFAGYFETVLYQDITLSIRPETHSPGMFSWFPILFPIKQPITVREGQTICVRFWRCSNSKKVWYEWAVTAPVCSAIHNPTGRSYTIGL
T1 sequence (Q9BQA1 whole entry partner): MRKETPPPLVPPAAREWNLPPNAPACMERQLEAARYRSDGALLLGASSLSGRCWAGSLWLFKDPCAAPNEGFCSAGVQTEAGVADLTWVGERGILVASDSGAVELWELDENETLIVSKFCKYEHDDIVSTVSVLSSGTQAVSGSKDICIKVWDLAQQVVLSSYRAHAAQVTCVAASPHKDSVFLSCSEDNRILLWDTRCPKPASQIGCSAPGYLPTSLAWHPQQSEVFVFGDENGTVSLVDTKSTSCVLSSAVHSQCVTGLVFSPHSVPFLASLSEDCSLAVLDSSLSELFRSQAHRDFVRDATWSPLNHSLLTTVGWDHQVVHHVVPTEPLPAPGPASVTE

CC(=O)N1CCC(Nc2cc(C(=O)NC[C@H](O)CN3CCc4c(ccc(OCc5cnco5)c4Cl)C3)ncn2)CC1 [Compound 241, (S)-6-((1-acetylpiperidin-4-yl)amino)-N-(3-(5-chloro-6-(oxazol-5-ylmethoxy)-3,4-dihydroisoquinolin-2(1H)-yl)-2-hydroxypropyl)pyrimidine-4-carboxamide]
IC50 (PRMT5 [1]): 50 to 500 nM | IC50 (PRMT5 [2]; read-out: No Co-factor IC50): 500 to 5000 nM | IC50 (PRMT5 [3]): 50 to 500 nM | SAM/MTA Ratio (PRMT5 [3]; [4]): A (a Ki ratio greater than or equal to 10 fold between the Ki in the presence of SAM and the Ki in the presence of MTA) | IC50 (HAP1 MTAP-intact): ≥ 10000 nM | IC50 (HAP1 MTAP-deleted): 1000 to 10000 nM | MTAP Intact/Deleted Ratio (HAP1 MTAP-deleted): C* (an IC50 ratio of less than 3 fold between the IC50 in the HAP1 MTAP-intact cell line and the HAP1 MTAP-deleted cell line)

COCCN(C)c1nc(NC2COC2)cc(C(=O)NC[C@H](O)CN2CCc3c(ccc(OCc4ocnc4C)c3C)C2)n1 [Compound 398, N-[(2S)-2-hydroxy-3-{5-methyl-6-[(4-methyl-1,3-oxazol-5-yl)methoxy]-1,2,3,4-tetrahydroisoquinolin-2-yl}propyl]-2-[(2-methoxyethyl)(methyl)amino]-6-[(oxetan-3-yl)amino]pyrimidine-4-carboxamide]
IC50 (PRMT5 [1]): 50 to 500 nM | IC50 (PRMT5 [2]; read-out: No Co-factor IC50): ≥ 5000 nM | IC50 (PRMT5 [3]): 50 to 500 nM | SAM/MTA Ratio (PRMT5 [3]; [4]): A (a Ki ratio greater than or equal to 10 fold between the Ki in the presence of SAM and the Ki in the presence of MTA) | IC50 (HAP1 MTAP-intact): ≥ 10000 nM | IC50 (HAP1 MTAP-deleted): 1000 to 10000 nM | MTAP Intact/Deleted Ratio (HAP1 MTAP-deleted): B* (an IC50 ratio greater than or equal to 3 fold but lower than 10 fold between the IC50 in the HAP1 MTAP-intact cell line and the HAP1 MTAP-deleted cell line)

CC(=O)N1CCC(Nc2ccnc(C(=O)NC[C@H](O)CN3CCc4cc(OCc5cnco5)ccc4C3)c2)CC1 [Compound 507, (S)-4-((1-acetylpiperidin-4-yl)amino)-N-(2-hydroxy-3-(6-(oxazol-5-ylmethoxy)-3,4-dihydroisoquinolin-2(1H)-yl)propyl)picolinamide]
IC50 (PRMT5 [1]): 50 to 500 nM | IC50 (PRMT5 [2]): 500 to 5000 nM | IC50 (PRMT5 [3]): 50 to 500 nM | SAM/MTA Ratio (PRMT5 [3]; [5]): A (a Ki ratio greater than or equal to 10 fold between the Ki in the presence of SAM and the Ki in the presence of MTA) | IC50 (HAP1 MTAP-intact): ≥ 10000 nM | IC50 (HAP1 MTAP-deleted): 1000 to 10000 nM | MTAP Intact/Deleted Ratio (HAP1 MTAP-deleted): B* (an IC50 ratio greater than or equal to 3 fold but lower than 10 fold between the IC50 in the HAP1 MTAP-intact cell line and the HAP1 MTAP-deleted cell line)

O=C(NC[C@H](O)CN1CCc2cc(OCc3cnco3)ccc2C1)c1cc(NC2COC2)nc(N2CCOCC2)n1 [Compound 304, (S)—N-(2-hydroxy-3-(6-(oxazol-5-ylmethoxy)-3N-dihydroisoquinolin-2(1H)-yl)propyl)-2-morpholino-6-(oxetan-3-ylamino)pyrimidine-4-carboxamide]
IC50 (PRMT5 [1]): 50 to 500 nM | IC50 (PRMT5 [2]; read-out: No Co-factor IC50): 500 to 5000 nM | IC50 (PRMT5 [3]): 50 to 500 nM | IC50 (HAP1 MTAP-intact): 1000 to 10000 nM | IC50 (HAP1 MTAP-deleted): 1000 to 10000 nM | MTAP Intact/Deleted Ratio (HAP1 MTAP-deleted): C* (an IC50 ratio of less than 3 fold between the IC50 in the HAP1 MTAP-intact cell line and the HAP1 MTAP-deleted cell line)

O=C(NC[C@H](O)CN1CCc2nc(OCc3cnco3)ccc2C1)c1ccnc(NC2CCC2)c1 [Compound 413, 2-(cyclobutylamino)-N-[(2S)-2-hydroxy-3-[2-(oxazol-5-ylmethoxy)-7,8-dihydro-5H-1,6-naphthyridin-6-yl]propyl]pyridine-4-carboxamide]
IC50 (PRMT5 [1]): 500 to 5000 nM | IC50 (PRMT5 [2]; read-out: No Co-factor IC50): ≥ 5000 nM | IC50 (PRMT5 [3]): 500 to 5000 nM | SAM/MTA Ratio (PRMT5 [3]; [4]): A (a Ki ratio greater than or equal to 10 fold between the Ki in the presence of SAM and the Ki in the presence of MTA) | IC50 (HAP1 MTAP-intact): ≥ 10000 nM | IC50 (HAP1 MTAP-deleted): ≥ 10000 nM | MTAP Intact/Deleted Ratio (HAP1 MTAP-deleted): C* (an IC50 ratio of less than 3 fold between the IC50 in the HAP1 MTAP-intact cell line and the HAP1 MTAP-deleted cell line)

O=C(NC[C@H](O)CN1CCc2cc(OCc3cnco3)ccc2C1)c1cc(NC2CCCC2)ncn1 [Compound 372, (S)-6-(cyclopentylamino)-N-(2-hydroxy-3-(6-(oxazol-5-ylmethoxy)-3,4-dihydroisoquinolin-2(1H)-yl)propyl)pyrimidine-4-carboxamide]
IC50 (PRMT5 [1]): 500 to 5000 nM | IC50 (PRMT5 [2]; read-out: No Co-factor IC50): ≥ 5000 nM | IC50 (PRMT5 [3]): 50 to 500 nM | SAM/MTA Ratio (PRMT5 [3]; [4]): A (a Ki ratio greater than or equal to 10 fold between the Ki in the presence of SAM and the Ki in the presence of MTA) | IC50 (HAP1 MTAP-intact): < 1000 nM | IC50 (HAP1 MTAP-deleted): < 1000 nM | MTAP Intact/Deleted Ratio (HAP1 MTAP-deleted): C* (an IC50 ratio of less than 3 fold between the IC50 in the HAP1 MTAP-intact cell line and the HAP1 MTAP-deleted cell line)

COCCN(C)c1cc(C(=O)NC[C@H](O)CN2CCc3cc(OCc4ocnc4C)ccc3C2)cc(NC2CCC2)n1 [Compound 554]
IC50 (PRMT5 [1]): 50 to 500 nM | IC50 (PRMT5 [2]): 500 to 5000 nM | IC50 (PRMT5 [3]): 50 to 500 nM | SAM/MTA Ratio (PRMT5 [3]; [5]): A (a Ki ratio greater than or equal to 10 fold between the Ki in the presence of SAM and the Ki in the presence of MTA) | IC50 (HAP1 MTAP-intact): < 1000 nM | IC50 (HAP1 MTAP-deleted): < 1000 nM | MTAP Intact/Deleted Ratio (HAP1 MTAP-deleted): C* (an IC50 ratio of less than 3 fold between the IC50 in the HAP1 MTAP-intact cell line and the HAP1 MTAP-deleted cell line)

CC(=O)N1CC(Nc2cc(C(=O)NC[C@H](O)CN3CCc4cc(OCc5ocnc5C)ccc4C3)nc(C(C)(C)C)n2)C1 [Compound 564, (S)-6-((1-acetylazetidin-3-yl)amino)-2-(tert-butyl)-N-(2-hydroxy-3-(6-((4-methyloxazol-5-yl)methoxy)-3,4-dihydroisoquinolin-2(1H)-yl)propyl)pyrimidine-4-carboxamide]
IC50 (PRMT5 [1]): 50 to 500 nM | IC50 (PRMT5 [2]): 500 to 5000 nM | IC50 (PRMT5 [3]): 50 to 500 nM | SAM/MTA Ratio (PRMT5 [3]; [5]): A (a Ki ratio greater than or equal to 10 fold between the Ki in the presence of SAM and the Ki in the presence of MTA) | IC50 (HAP1 MTAP-intact): 1000 to 10000 nM | IC50 (HAP1 MTAP-deleted): < 1000 nM | MTAP Intact/Deleted Ratio (HAP1 MTAP-deleted): B* (an IC50 ratio greater than or equal to 3 fold but lower than 10 fold between the IC50 in the HAP1 MTAP-intact cell line and the HAP1 MTAP-deleted cell line)

CC(=O)N1CC(Nc2cc(C(=O)NC[C@H](O)CN3CCc4c(ccc(OCc5cnco5)c4Cl)C3)nc(N3CCCCC3)n2)C1 [Compound 532]
IC50 (PRMT5 [1]): 50 to 500 nM | IC50 (PRMT5 [2]): 500 to 5000 nM | IC50 (PRMT5 [3]): 50 to 500 nM | SAM/MTA Ratio (PRMT5 [3]; [5]): A (a Ki ratio greater than or equal to 10 fold between the Ki in the presence of SAM and the Ki in the presence of MTA) | IC50 (HAP1 MTAP-intact): ≥ 10000 nM | IC50 (HAP1 MTAP-deleted): < 1000 nM | MTAP Intact/Deleted Ratio (HAP1 MTAP-deleted): A* (an IC50 ratio greater than or equal to 10 fold between the IC50 in the HAP1 MTAP-intact cell line and the HAP1 MTAP-deleted cell line)

O=C(NC[C@H](O)CN1CCc2cc(OCc3cnco3)ccc2C1)c1ccnc(NC2CCN(C(=O)C3CCC3)CC2)c1 [Compound 433, 2-[[1-(cyclobutanecarbonyl)-4-piperidyl]amino]-N-[(2S)-2-hydroxy-3-[6-(oxazol-5-ylmethoxy)-3N-dihydro-1H-isoquinolin-2-yl]propyl]pyridine-4-carboxamide]
IC50 (PRMT5 [1]): 50 to 500 nM | IC50 (PRMT5 [2]): 500 to 5000 nM | IC50 (PRMT5 [3]): 50 to 500 nM | SAM/MTA Ratio (PRMT5 [3]; [5]): A (a Ki ratio greater than or equal to 10 fold between the Ki in the presence of SAM and the Ki in the presence of MTA) | IC50 (HAP1 MTAP-intact): 1000 to 10000 nM | IC50 (HAP1 MTAP-deleted): < 1000 nM | MTAP Intact/Deleted Ratio (HAP1 MTAP-deleted): B* (an IC50 ratio greater than or equal to 3 fold but lower than 10 fold between the IC50 in the HAP1 MTAP-intact cell line and the HAP1 MTAP-deleted cell line)

COCCN(C)c1cc(C(=O)NC[C@H](O)CN2CCc3c(ccc(OCc4ocnc4C)c3C)C2)cc(NC2CCC2)n1 [Compound 437, 2-(cyclobutylamino)-N-[(2S)-2-hydroxy-3-{5-methyl-6-[(4-methyl-1,3-oxazol-5-yl)methoxy]-1,2,3,4-tetrahydroisoquinolin-2-yl}propyl]-6-[(2-methoxyethyl)(methyl)amino]pyridine-4-carboxamide]
IC50 (PRMT5 [1]): 50 to 500 nM | IC50 (PRMT5 [2]): ≥ 5000 nM | IC50 (PRMT5 [3]): 50 to 500 nM | SAM/MTA Ratio (PRMT5 [3]; [5]): A (a Ki ratio greater than or equal to 10 fold between the Ki in the presence of SAM and the Ki in the presence of MTA) | IC50 (HAP1 MTAP-intact): ≥ 10000 nM | IC50 (HAP1 MTAP-deleted): 1000 to 10000 nM | MTAP Intact/Deleted Ratio (HAP1 MTAP-deleted): B* (an IC50 ratio greater than or equal to 3 fold but lower than 10 fold between the IC50 in the HAP1 MTAP-intact cell line and the HAP1 MTAP-deleted cell line)

COc1cc(C(=O)NC[C@H](O)CN2CCc3c(ccc(OCc4ocnc4C)c3C)C2)cc(NC2CCN(C(C)=O)CC2)n1 [Compound 604, (S)-2-((1-acetylpiperidin-4-yl)amino)-N-(2-hydroxy-3-[5-methyl-6-((4-methyloxazol-5-yl)methoxy)-3,4-dihydroisoquinolin-2(1H)-yl)propyl)-6-methoxyisonicotinamide]
IC50 (PRMT5 [1]): 50 to 500 nM | IC50 (PRMT5 [2]): 500 to 5000 nM | IC50 (PRMT5 [3]): 50 to 500 nM | SAM/MTA Ratio (PRMT5 [3]; [5]): A (a Ki ratio greater than or equal to 10 fold between the Ki in the presence of SAM and the Ki in the presence of MTA) | IC50 (HAP1 MTAP-intact): 1000 to 10000 nM | IC50 (HAP1 MTAP-deleted): < 1000 nM | MTAP Intact/Deleted Ratio (HAP1 MTAP-deleted): A* (an IC50 ratio greater than or equal to 10 fold between the IC50 in the HAP1 MTAP-intact cell line and the HAP1 MTAP-deleted cell line)
